Results from US11033604B2, “Reagents and methods for treating bacterial infection” (priority 2018, dated 2021).
Non-standard residues stand in square brackets, D forms with d. No end group written: not given here.

Key:
UTI89 WT biofilms = test: Biofilm adherence to glass slides after washing; format: cell-based, E. coli; conditions: after gentle washing
Excerpt: FIG. 12. […] Error bars indicate standard deviation of the mean of at least three replicates. Significance values are p<0.05: *, p<0.01: **, p<0.001: ***.
UTI89 biofilms were also cultivated in the presence of an unstructured peptide, P1, which retains a mixture of L- and D-amino acids but lacks the α-sheet secondary structure of AP193.

S. mutans biofilm = test: TEM of S. mutans biofilm; format: cell-based, Streptococcus mutans; conditions: 100 μM (FIG. 16)
Description: FIG. 16. Synthetic α-sheet peptides as a novel anti-biofilm agent for the dental pathogen, S. mutans. A) ThT fluorescence of S. mutans biofilms decreases upon addition of synthetic α-sheet peptides AP193, AP407, and AP90. […] D) synthetic α-sheet peptides added to S. mutans grown on hydroxyapatite ceramic particles led to significant decreases in ThT fluorescence.
The phenotypic effects of synthetic α-sheet peptides were determined using TEM.

| Substance | Adherence of biofilm to glass slides (UTI89 WT biofilms) | Fibrillar structures in extracellular material by TEM (S. mutans biofilm) |
| --- | --- | --- |
| RGEmNyFwMNEYYGWtMnCkMGR (RGE[dM]N[dY]F[dW]MNEYYGW[dT]M[dN]C[dK]MGR) [AP193, hydrophobic AP90 derivative, variant to support different chemical coupling reactions] | far less adherent to glass slides |  |
| RGEmNlSwMNEYSGWtMnLkMGR (RGEMNLSWMNEYSGWTMNLKMGR; not fully specified (residues 4, 6, 8, 16, 18, 20); printed as RGEmNlSwMNEYSGWtMnLkMGR) [AP90] |  | such structures were not observed |
